Experimental data: PubChem BioAssay (NCI)
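Compound exposure: 48 hours, 5 concentrations, 96-well plates. Here, GI50 denotes the concentration required for 50% inhibition of growth. TGI is the concentration that stops growth completely.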 Where a SMILES comes first, the peptide text is derived from it. [ ]: non-standard residue; d: D form. Phe(F5) = N[CH](Cc1c(F)c(F)c(F)c(F)c1F)C(=O)O

What was measured:
Assay in all cases: NCI tumour cell line growth inhibition, 48 h
[1] = test system: A549 NSCLC
[2] = test system: EKVX NSCLC
[3] = test system: HT29 colon
[4] = test system: SF-295 CNS
[5] = test system: SK-MEL-2 melanoma
[6] = test system: T-47D breast
[7] = test system: TK-10 renal
[8] = test system: UACC-257 melanoma
[9] = test system: NCI-H23 lung
[10] = test system: UACC-62 melanoma

| Structure (SMILES) | GI50 [1] [µM] | TGI [1] [µM] | GI50 [2] [µM] | TGI [2] [µM] | GI50 [3] [µM] | TGI [3] [µM] | GI50 [4] [µM] | TGI [4] [µM] | GI50 [5] [µM] | TGI [5] [µM] | GI50 [6] [µM] | TGI [6] [µM] | GI50 [7] [µM] | TGI [7] [µM] | GI50 [8] [µM] | TGI [8] [µM] | GI50 [9] [µM] | TGI [9] [µM] | GI50 [10] [µM] | TGI [10] [µM] |
| --- | --- | --- | --- | --- | --- | --- | --- | --- | --- | --- | --- | --- | --- | --- | --- | --- | --- | --- | --- | --- |
| CCOC(=O)c1c2c(n(CC(C)C)c1C)-c1nc[nH]c1C(=O)C2=O | 14.9 | 28.1 | 15 | 28.2 | 20.4 | 46.5 | 19.2 | 35.9 | 19.4 | 34 | 3.3 | 14.3 | 20.5 | 36.6 | 18.4 | 32.3 |  |  |  |  |
| COc1cc2cc(Oc3ccc(NC(=O)Nc4ccc(Cl)c(C(F)(F)F)c4)cc3)c(C)nc2cc1OCCN1CCCCC1 |  |  | 1.46 | 2.88 |  |  | 1.81 | 3.3 | 1.87 | 3.64 |  |  | 1.79 | 3.38 | 1.79 | 3.46 | 1.69 | 3.28 | 1.69 | 3.08 |
| COc1cc(Cn2cc3c(c2)-c2oncc2CC3)cc(OC)c1OC | 0.0509 | > 100 | 0.0467 | > 65.7 | 0.0339 | > 100 | 0.0185 | 0.059 | 7.2 | 79.3 |  |  | 5.77 | > 100 | 1.16 | 51.7 | 0.048 | > 69.7 | 0.0362 | > 81.7 |
| c1ccc2[nH]c(-c3ccc(N4CCN(c5ccc(-c6nc7ccccc7[nH]6)cc5)CC4)cc3)nc2c1 | > 100 | > 100 | 25.7 | > 100 | > 100 | > 100 | > 100 | > 100 |  |  | 30.4 | > 100 | 37.9 | > 100 | > 100 | > 100 | > 100 | > 100 | 83 | > 100 |
| CCN1C(=O)N(CC)C2C1NN=c1s/c(=C3\C(=O)N(C(C)C)c4ccccc43)c(=O)n12 (configuration not stated) | 0.459 | > 100 | 0.606 | > 100 | 0.35 | > 100 | 0.246 | 0.83 | 1.24 | > 49.7 |  |  | 1.33 | > 69.4 | > 37.7 | > 100 | 0.421 | 30.5 | 0.466 | > 36.2 |
| Nc1nc(/C=C\c2ccc([N+](=O)[O-])o2)nc(N2CCN(c3ccccc3)CC2)n1 | 19.9 | 86.5 | 23.1 | > 100 | 13.7 | 55.9 | 22.1 | 73.8 | 9.91 | > 100 | 13.5 | 60 | 5.77 | 32 | 11.5 | 41.3 |  |  | 7.36 | 25.8 |
| O=C(NCCCCCCNC(=O)c1cccc2ccccc12)c1cccc2ccccc12 |  | > 100 |  | > 100 |  | > 100 |  | 3.4 |  | 34.5 |  |  |  | 36.9 |  | > 100 |  | > 100 |  | > 100 |
| CN(C)c1ccc2c(NCCCCCCNc3ccnc4cc(N(C)C)ccc34)ccnc2c1 |  | > 100 |  | > 100 |  | > 100 |  | 40.3 |  | 82.5 |  |  |  | 32.2 |  | 49.9 |  | 27.2 |  | > 100 |
| CCCC(O)[C@@H](O)c1ccc2c(c1O)C(=O)c1c(OC)cccc1C2=O (some centres not stated) |  | > 100 |  | > 100 |  | > 100 |  | > 100 |  | > 100 |  |  |  | > 100 |  | 68.8 |  | > 100 |  | 61.8 |
| CCC[CH2][Sn]([CH2]CCC)([O]C(C)=O)[O]C(C)=O | 3.65 | 15.3 | 1.84 | 4.94 | 1.7 | 3.53 | 1.85 | 3.79 | 0.542 | 1.95 |  |  | 1.38 | 2.74 | 1.39 | 3.26 | 1.21 | 2.91 | 1.09 | 2.37 |
| CC1(Sc2ccccc2)CN(Cc2ccccc2)C1=O (configuration not stated) |  | > 100 |  | > 100 |  | > 100 |  | > 100 |  | > 100 |  |  |  | > 100 |  | > 100 |  | > 100 |  | > 100 |
| COC(=O)CCC(=O)N1Cc2cc(C)ccc2N(C(=O)CCC(=O)OC)Cc2cc(C)ccc21 |  | > 100 |  | > 100 |  | > 100 |  | > 100 |  | > 100 |  |  |  | > 100 |  |  |  | > 100 |  | > 100 |
| N#Cc1ncc(/N=C/c2ccc(N(CCCl)CCCl)cc2)s1 | 28.2 | > 100 | 42.2 | > 100 | 72.8 | > 100 |  |  | 69.9 | > 100 | 6.71 | > 100 | 23.2 | 97.4 | 13.3 | 63 | 5.53 | > 100 | 3.09 | 28.7 |
| COC(=O)C(CC(C)C)NC(=O)C(Cc1cnc[nH]1)NC(=O)CNC(=O)C(NC(=O)C(C)NC(=O)C(Cc1c[nH]c2ccccc12)NC(=O)C(CCC(=O)O)NC(=O)C(N)Cc1c(F)c(F)c(F)c(F)c1F)C(C)C (configuration not stated) (H-[Phe(F5)]EWAVGHL-OMe; configuration not given here) | > 100 | > 100 | > 100 | > 100 | > 100 | > 100 | > 100 | > 100 | > 100 | > 100 |  | > 12.5 |  |  | > 100 | > 100 | > 100 | > 100 | > 100 | > 100 |
| CCOC(=O)C=C1CCN(C(=O)c2ccccc2)CC1 |  | > 100 |  | > 100 |  | > 100 |  | > 100 |  | 0.284 |  |  |  | > 100 |  | > 100 |  | > 100 |  | > 100 |
| CC1=C2CCCC2C/C(=N/Nc2ccc([N+](=O)[O-])cc2[N+](=O)[O-])CC1 (configuration not stated) |  | > 100 |  |  |  | > 100 |  | > 100 |  | > 100 |  |  |  | > 100 |  | > 100 |  | > 100 |  | > 100 |
| CC1CC2C(=O)NC(=O)C2c2[nH]c3ccccc3c21 (configuration not stated) |  | > 100 |  | > 100 |  | > 100 |  | > 100 |  | > 100 |  |  |  |  |  |  |  | > 100 |  |  |
